This experiment has as its target GCN2 (Homo sapiens, UniProt Q9P2K8). Kind of experiment: GCN2 enzymatic endpoint assay: phosphorylation of GFP-eIF2α measured by TR-FRET (Lanthascreen). Format: biochemical. The settings on record: tested as described in Example 77; compound and/or hydrochloride, dihydrochloride or trifluoroacetic acid salt; read-out: IC 50 Activity. A digest of the protocol: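 2 μM ATP, 80 nM GFP-eIF2α, RT, 90 min; EDTA stop. Tb-anti-phospho antibody TR-FRET read, 520/495 nm ratio.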
On the technique in general: Time-resolved FRET reads energy transfer from a long-lived donor to a nearby acceptor.

Chain of GCN2 (Q9P2K8 whole entry): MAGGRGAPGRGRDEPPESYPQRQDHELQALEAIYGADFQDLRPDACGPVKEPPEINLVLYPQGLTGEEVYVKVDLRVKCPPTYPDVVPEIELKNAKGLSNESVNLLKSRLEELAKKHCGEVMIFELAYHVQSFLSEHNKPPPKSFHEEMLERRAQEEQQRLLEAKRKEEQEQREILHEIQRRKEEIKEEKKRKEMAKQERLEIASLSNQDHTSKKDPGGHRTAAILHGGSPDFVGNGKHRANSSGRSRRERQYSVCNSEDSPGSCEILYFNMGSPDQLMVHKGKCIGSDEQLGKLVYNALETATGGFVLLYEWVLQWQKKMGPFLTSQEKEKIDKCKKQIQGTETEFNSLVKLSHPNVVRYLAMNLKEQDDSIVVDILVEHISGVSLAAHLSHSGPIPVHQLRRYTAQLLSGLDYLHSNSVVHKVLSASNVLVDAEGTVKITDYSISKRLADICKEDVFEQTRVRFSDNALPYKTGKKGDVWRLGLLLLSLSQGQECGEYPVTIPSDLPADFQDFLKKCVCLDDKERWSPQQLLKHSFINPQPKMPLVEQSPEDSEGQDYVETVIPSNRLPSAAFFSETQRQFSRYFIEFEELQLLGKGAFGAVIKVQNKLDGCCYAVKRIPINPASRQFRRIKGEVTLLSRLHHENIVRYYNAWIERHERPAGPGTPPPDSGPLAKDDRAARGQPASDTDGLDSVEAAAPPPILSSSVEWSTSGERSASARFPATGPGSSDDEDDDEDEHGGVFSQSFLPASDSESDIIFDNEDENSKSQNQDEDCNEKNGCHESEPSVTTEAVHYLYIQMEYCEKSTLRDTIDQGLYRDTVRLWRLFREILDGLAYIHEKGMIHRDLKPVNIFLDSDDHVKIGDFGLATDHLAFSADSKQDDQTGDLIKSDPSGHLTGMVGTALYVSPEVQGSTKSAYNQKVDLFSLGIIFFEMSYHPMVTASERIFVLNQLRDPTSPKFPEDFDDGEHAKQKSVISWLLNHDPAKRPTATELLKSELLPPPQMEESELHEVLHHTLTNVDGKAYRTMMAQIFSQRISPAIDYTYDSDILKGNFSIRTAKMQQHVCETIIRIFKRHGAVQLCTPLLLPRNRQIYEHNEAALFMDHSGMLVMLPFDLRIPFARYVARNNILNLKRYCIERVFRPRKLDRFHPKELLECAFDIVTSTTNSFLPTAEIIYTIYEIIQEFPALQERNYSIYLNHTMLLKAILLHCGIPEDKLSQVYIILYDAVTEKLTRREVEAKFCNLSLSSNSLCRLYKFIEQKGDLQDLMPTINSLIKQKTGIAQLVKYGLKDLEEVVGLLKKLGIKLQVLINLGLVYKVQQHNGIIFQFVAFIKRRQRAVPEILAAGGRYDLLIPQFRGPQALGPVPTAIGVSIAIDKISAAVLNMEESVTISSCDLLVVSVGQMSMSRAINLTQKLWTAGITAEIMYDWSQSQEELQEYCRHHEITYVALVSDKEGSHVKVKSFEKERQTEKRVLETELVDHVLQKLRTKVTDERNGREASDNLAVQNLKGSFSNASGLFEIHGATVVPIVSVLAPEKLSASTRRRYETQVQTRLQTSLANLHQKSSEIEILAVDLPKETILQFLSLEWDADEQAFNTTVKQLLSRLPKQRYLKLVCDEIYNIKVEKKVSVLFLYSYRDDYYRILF

As to `CNC(=O)[C@]1(C)CC[C@@H](Nc2ncc3c(Br)nn(-c4cc(CC(C)(C)O)c5ncccc5c4)c3n2)C1` [(1R,3R)-3-[[3-bromo-1-[8-(2-hydroxy-2-methyl-propyl)-6-quinolyl]pyrazolo[3,4-d]pyrimidin-6-yl]amino]-N,1-dimethyl-cyclopentanecarboxamide], the IC50 lay within 0.025 to 0.2 µM.

Turning to `CNC(=O)[C@]1(C)CC[C@@H](Nc2ncc3c(Br)nn(-c4cc(CCO)c5nc(C)ccc5c4)c3n2)C1` [(1R,3R)-3-[[3-bromo-1-[8-(2-hydroxy-ethyl)-2-methyl-6-quinolyl]pyrazolo[3,4-d]pyrimidin-6-yl]amino]-N,1-dimethyl-cyclopentanecarboxamide], the IC50 is 0.025 to 0.2 µM.

For the compound `CNC(=O)[C@]1(C)CC[C@@H](Nc2ncc3c(Br)nn(-c4cc(CC(C)O)c5ncccc5c4)c3n2)C1` (stereo partly drawn) [(1R,3R)-3-[[3-bromo-1-[8-(2-hydroxy-propyl)-6-quinolyl]pyrazolo[3,4-d]pyrimidin-6-yl]amino]-N,1-dimethyl-cyclopentanecarboxamide], the IC50 was below 0.025 µM.

Take `CNC(=O)[C@]1(CC(F)F)CC[C@@H](Nc2ncc3c(Br)nn(-c4cc(CCO)c5ncccc5c4)c3n2)C1` [(1R,3R)-3-[[3-bromo-1-[8-(2-hydroxyethyl)-6-quinolyl]pyrazolo[3,4-d]pyrimidin-6-yl]amino]-1-(2,2-difluoroethyl)-N-methyl-cyclo-pentanecarboxamide]: the IC50 fell in the range of 0.025 to 0.2 µM.

With `CNC(=O)[C@]1(C)CC[C@@H](Nc2ncc3c(Br)nn(-c4cc(OCCOC)c5ncccc5c4)c3n2)C1` [(1R,3R)-3-[[3-bromo-1-[8-(2-methoxy-ethoxy)-6-quinolyl]pyrazolo[3,4-d]pyrimidin-6-yl]amino]-N,1-dimethyl-cyclopentanecarboxamide], the IC50 was below 0.025 µM.

Consider `CNC(=O)[C@]1(C)CC[C@@H](Nc2ncc3c(Br)nn(-c4cc(CCN5CCOCC5)c5ncccc5c4)c3n2)C1` [(1R,3R)-3-[[3-bromo-1-[8-(2-morpholinoethyl)-6-quinolyl]pyrazolo [3,4-d]pyrimidin-6-yl]amino]-N,1-dimethyl-cyclopentanecarboxamide], for which the IC50 lay within 0.025 to 0.2 µM.

As for `CNC(=O)[C@]1(C)CC[C@@H](Nc2ncc3c(Br)nn(-c4cc(N5CCNCC5=O)c5ncccc5c4)c3n2)C1` [(1R,3R)-3-[[3-bromo-1-[8-(2-oxopiperazin-1-yl)-6-quinolyl]pyrazolo[3,4-d]pyrimidin-6-yl]amino]-N,1-dimethyl-cyclopentane-carboxamide], the IC50 lay in the range of 0.025 to 0.2 µM.

Take `CNC(=O)[C@]1(C)CC[C@@H](Nc2ncc3c(Br)nn(-c4cc(CCCOC)c5c(c4)CCC(=O)N5C)c3n2)C1` [(1R,3R)-3-[[3-bromo-1-[8-(3-methoxy-propyl)-1-methyl-2-oxo-3,4-dihydro-quinolin-6-yl]pyrazolo[3,4-d]pyrimidin-6-yl]amino]-N,1-dimethyl-cyclopentane-carboxamide; 2,2,2-trifluoroacetic acid]: the IC50 fell in the range of 0.025 to 0.2 µM.

As to `CNC(=O)[C@]1(C)CC[C@@H](Nc2ncc3c(Br)nn(-c4cc(CC#N)c5ncccc5c4)c3n2)C1` [(1R,3R)-3-[[3-bromo-1-[8-(cyanomethyl)-6-quinolyl]pyrazolo[3,4-d]pyrimidin-6-yl]amino]-N,1-dimethyl-cyclopentane-carboxamide], the IC50 was below 0.025 µM.

With `CNC(=O)[C@]1(C)CC[C@@H](Nc2ncc3c(Br)nn(-c4cc(CC#N)c5nccnc5c4)c3n2)C1` [(1R,3R)-3-[[3-bromo-1-[8-(cyanomethyl)quinoxalin-6-yl]pyrazolo[3,4-d]pyrimidin-6-yl]amino]-N,1-dimethyl-cyclopentane-carboxamide], the IC50 fell in the range of 0.025 to 0.2 µM.

As to `CNC(=O)[C@]1(C)CC[C@@H](Nc2ncc3c(Br)nn(-c4cc(CO)c5ncccc5c4)c3n2)C1` [(1R,3R)-3-[[3-bromo-1-[8-(hydroxy-methyl)-6-quinolyl]pyrazolo[3,4-d]pyrimidin-6-yl]amino]-N,1-dimethyl-cyclopentanecarboxamide], the IC50 is below 0.025 µM.

Turning to `CNC(=O)[C@]1(C)CC[C@@H](Nc2ncc3c(Br)nn(-c4cc(CO)c5nccnc5c4)c3n2)C1` [(1R,3R)-3-[[3-bromo-1-[8-(hydroxymethyl)quinoxalin-6-yl]pyrazolo[3,4-d]pyrimidin-6-yl]amino]-N,1-dimethyl-cyclopentane-carboxamide], the IC50 is 0.025 to 0.2 µM.

Consider `CNC(=O)[C@]1(C)CC[C@@H](Nc2ncc3c(Br)nn(-c4cc(CN[S+](C)[O-])c5nccnc5c4)c3n2)C1` (stereo partly drawn) [(1R,3R)-3-[[3-bromo-1-[8-(methane-sulfinamidomethyl)quinoxalin-6-yl]pyrazolo[3,4-d]pyrimidin-6-yl]amino]-N,1-dimethyl-cyclopentane-carboxamide], for which the IC50 was in the range of 0.025 to 0.2 µM.

In the case of `CNC(=O)[C@]1(C)CC[C@@H](Nc2ncc3c(Br)nn(-c4cc(CNS(C)(=O)=O)c5nccnc5c4)c3n2)C1` [(1R,3R)-3-[[3-bromo-1-[8-(methane-sulfonamidomethyl)quinoxalin-6-yl]pyrazolo[3,4-d]pyrimidin-6-yl]amino]-N,1-dimethyl-cyclopentanecarboxamide], the IC50 was 0.025 to 0.2 µM.

For the compound `CNC(=O)[C@]1(C)CC[C@@H](Nc2ncc3c(Br)nn(-c4cc(COC)c5ncccc5c4)c3n2)C1` [(1R,3R)-3-[[3-bromo-1-[8-(methoxymethyl)-6-quinolyl]pyrazolo[3,4-d]pyrimidin-6-yl]amino]-N,1-dimethyl-cyclopentane-carboxamide], the IC50 lay within 0.025 to 0.2 µM.

`CNC(=O)[C@]1(C)CC[C@@H](Nc2ncc3c(Br)nn(-c4cc(CS(C)(=O)=O)c5nccnc5c4)c3n2)C1` [(1R,3R)-3-[[3-bromo-1-[8-(methyl-sulfonylmethyl)quinoxalin-6-yl]pyrazolo [3,4-d]pyrimidin-6-yl]amino]-N,1-dimethyl-cyclopentanecarboxamide]: the IC50 lay in the range of 0.025 to 0.2 µM.

As to `CNC(=O)[C@]1(C)CC[C@@H](Nc2ncc3c(Br)nn(-c4cc(CS(C)(=O)=O)c5ncccc5c4)c3n2)C1` [(1R,3R)-3-[[3-bromo-1-[8-(methylsulfonyl-methyl)-6-quinolyl]pyrazolo[3,4-d]pyrimidin-6-yl]amino]-N,1-dimethyl-cyclopentanecarboxamide], the IC50 is 0.025 to 0.2 µM.

Take `CNC(=O)[C@]1(C)CC[C@@H](Nc2ncc3c(Br)nn(-c4cc(CCNC(=O)C(C)C)c5ncccc5c4)c3n2)C1` [(1R,3R)-3-[[3-bromo-1-[8-[2-(2-methyl-propanoylamino)ethyl]-6-quinolyl]pyrazolo [3,4-d]pyrimidin-6-yl]amino]-N,1-dimethyl-cyclopentanecarboxamide]: the IC50 was in the range of 0.025 to 0.2 µM.

Regarding `CC#CC(=O)NCCc1cc(-n2nc(Br)c3cnc(N[C@@H]4CC[C@@](C)(C(=O)NC)C4)nc32)cc2cccnc12` [(1R,3R)-3-[[3-bromo-1-[8-[2-(but-2-ynoylamino)ethyl]-6-quinolyl]pyrazolo [3,4-d]pyrimidin-6-yl]amino]-N,1-dimethyl-cyclopentanecarboxamide], the IC50 fell in the range of 0.025 to 0.2 µM.

As for `CNC(=O)[C@]1(C)CC[C@@H](Nc2ncc3c(Br)nn(-c4cc(CCNS(C)(=O)=O)c5ncccc5c4)c3n2)C1` [(1R,3R)-3-[[3-bromo-1-[8-[2-(methane-sulfonamido)ethyl]-6-quinolyl]pyrazolo [3,4-d]pyrimidin-6-yl]amino]-N,1-dimethyl-cyclopentanecarboxamide], the IC50 fell in the range of 0.025 to 0.2 µM.

Consider `C=CC(=O)NCCc1cc(-n2nc(Br)c3cnc(N[C@@H]4CC[C@@](C)(C(=O)NC)C4)nc32)cc2cccnc12` [(1R,3R)-3-[[3-bromo-1-[8-[2-(prop-2-enoylamino)ethyl]-6-quinolyl]pyrazolo [3,4-d]pyrimidin-6-yl]amino]-N,1-dimethyl-cyclopentanecarboxamide], for which the IC50 lay in the range of 0.025 to 0.2 µM.

In the case of `CNC(=O)[C@]1(C)CC[C@@H](Nc2ncc3c(Br)nn(-c4cc(CCNC(=O)/C=C/CN(C)C)c5ncccc5c4)c3n2)C1` [(1R,3R)-3-[[3-bromo-1-[8-[2-[[(E)-4-(dimethylamino)but-2-enoyl]amino]ethyl]-6-quinolyl]pyrazolo[3,4-d]pyrimidin-6-yl]amino]-N,1-dimethyl-cyclopentane-carboxamide], the IC50 was in the range of 0.025 to 0.2 µM.

For `CNC(=O)[C@]1(C)CC[C@@H](Nc2ncc3c(Br)nn(-c4cc(CN5CCCS5(=O)=O)c5ncccc5c4)c3n2)C1` [(1R,3R)-3-[[3-bromo-1-[8-[(1,1-dioxo-1,2-thiazolidin-2-yl)methyl]-6-quinolyl]pyrazolo[3,4-d]pyrimidin-6-yl]amino]-N,1-dimethyl-cyclopentanecarboxamide], the IC50 was 0.025 to 0.2 µM.

For `CNC(=O)[C@]1(C)CC[C@@H](Nc2ncc3c(Br)nn(-c4cc([C@@H](C)CO)c5ncccc5c4)c3n2)C1` [(1R,3R)-3-[[3-bromo-1-[8-[(1R)-2-hydroxy-1-methyl-ethyl]-6-quinolyl]pyrazolo[3,4-d]pyrimidin-6-yl]amino]-N,1-dimethyl-cyclo-pentanecarboxamide], the IC50 was below 0.025 µM.

Consider `CNC(=O)[C@]1(C)CC[C@@H](Nc2ncc3c(Br)nn(-c4cc([C@H](C)CO)c5ncccc5c4)c3n2)C1` [(1R,3R)-3-[[3-bromo-1-[8-[(1S)-2-hydroxy-1-methyl-ethyl]-6-quinolyl]pyrazolo[3,4-d]pyrimidin-6-yl]amino]-N,1-dimethyl-cyclopentanecarboxamide], for which the IC50 was below 0.025 µM.

For the compound `CNC(=O)[C@]1(C)CC[C@@H](Nc2ncc3c(Br)nn(-c4cc(CNCC(F)F)c5ncccc5c4)c3n2)C1` [(1R,3R)-3-[[3-bromo-1-[8-[(2,2-difluoroethylamino)methyl]-6-quinolyl]pyrazolo[3,4-d]pyrimidin-6-yl]amino]-N,1-dimethyl-cyclopentanecarboxamide], the IC50 lay in the range of 0.025 to 0.2 µM.

As to `CNC(=O)[C@]1(C)CC[C@@H](Nc2ncc3c(Br)nn(-c4cc(CN5C(=O)CNC5=O)c5ncccc5c4)c3n2)C1` [(1R,3R)-3-[[3-bromo-1-[8-[(2,5-dioxo-imidazolidin-1-yl)methyl]-6-quinolyl]pyrazolo[3,4-d]pyrimidin-6-yl]amino]-N,1-dimethyl-cyclopentanecarboxamide], the IC50 lay in the range of 0.025 to 0.2 µM.

For the origin of these results see US11046699B2, “Pyrazolo-pyrimidin-amino-cycloalkyl compounds and their therapeutic uses” (RAPT THERAPEUTICS, INC., priority 2018, dated 2021).
